Legend:
Cbl-b = molecular target: T1, Cbl-b (Homo sapiens, UniProt Q13191); experiment: Cbl-b probe displacement HTRF binding assay; details: 0.4 nM biotinylated Cbl-b, 150 nM BODIPY probe
T1 construct: biotin (biotinylated)
Procedure, shortened: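 Probe-displacement HTRF in Hepes/NaCl/Triton/TCEP/BSA buffer at room temperature: compound dilutions (to 10 μM) incubated 60 min with 0.4 nM biotin-Cbl-b, 150 nM BODIPY probe added for 15 min, Tb-streptavidin read. Signal normalised to DMSO and no-protein controls; IC50 from four-parameter curve.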

Jurkat cells = experiment: IL-2 secretion assay in CD3/CD28-activated Jurkat cells (AlphaLISA); assay type: cell-based, human; details: Homo sapiens, CD3/CD28 T Cell Activator, 24 h, IL-2 AlphaLISA
Protocol: Certain compounds were also evaluated in an IL-2 secretion assay. On the day of the assay, a 16 point, 1:2 master serial dilution of each compound was prepared in Opti-MEM to span a final concentration range of 10 μM to 300 pM. Assays were setup in CORNING® tissue culture-treated 384-well microplates containing 60 nL of each dilution. Jurkat cells grown in RPMI-1640 supplemented with 10% FBS, 1% Glutamax, and 1% Pen/Strep were collected, resuspended in Opti-MEM. 50,000 cells/well and added to the compound plates. After a short spin (1200 rpm for 1 min), the plates were incubated at 37° C. for 1 hour. The cells were activated by adding 15 μL of IMUNOCULT™ Human CD3/CD28 T Cell Activator (STEMCELL Technologies) diluted in Opti-MEM. After 24 h of incubation at 37° C., aliquots of culture supernatants were transferred to OptiPlate-384 (PerkinElmer) microplates. The level of IL-2 secretion in the supernatants was then determined using the IL-2 (human) AlphaLISA Detection Kit (PerkinElmer) according to the manufacturer's recommendations. The AlphaLISA signal was measured using an EnVision plate reader (PerkinElmer). EC50 values were determined by fitting the data to a standard 4-parameter logistic equation. See Table 3 for data for select compounds (IL-2 Secretion (EC50)).

T1 sequence (Q13191 whole entry, species assumed): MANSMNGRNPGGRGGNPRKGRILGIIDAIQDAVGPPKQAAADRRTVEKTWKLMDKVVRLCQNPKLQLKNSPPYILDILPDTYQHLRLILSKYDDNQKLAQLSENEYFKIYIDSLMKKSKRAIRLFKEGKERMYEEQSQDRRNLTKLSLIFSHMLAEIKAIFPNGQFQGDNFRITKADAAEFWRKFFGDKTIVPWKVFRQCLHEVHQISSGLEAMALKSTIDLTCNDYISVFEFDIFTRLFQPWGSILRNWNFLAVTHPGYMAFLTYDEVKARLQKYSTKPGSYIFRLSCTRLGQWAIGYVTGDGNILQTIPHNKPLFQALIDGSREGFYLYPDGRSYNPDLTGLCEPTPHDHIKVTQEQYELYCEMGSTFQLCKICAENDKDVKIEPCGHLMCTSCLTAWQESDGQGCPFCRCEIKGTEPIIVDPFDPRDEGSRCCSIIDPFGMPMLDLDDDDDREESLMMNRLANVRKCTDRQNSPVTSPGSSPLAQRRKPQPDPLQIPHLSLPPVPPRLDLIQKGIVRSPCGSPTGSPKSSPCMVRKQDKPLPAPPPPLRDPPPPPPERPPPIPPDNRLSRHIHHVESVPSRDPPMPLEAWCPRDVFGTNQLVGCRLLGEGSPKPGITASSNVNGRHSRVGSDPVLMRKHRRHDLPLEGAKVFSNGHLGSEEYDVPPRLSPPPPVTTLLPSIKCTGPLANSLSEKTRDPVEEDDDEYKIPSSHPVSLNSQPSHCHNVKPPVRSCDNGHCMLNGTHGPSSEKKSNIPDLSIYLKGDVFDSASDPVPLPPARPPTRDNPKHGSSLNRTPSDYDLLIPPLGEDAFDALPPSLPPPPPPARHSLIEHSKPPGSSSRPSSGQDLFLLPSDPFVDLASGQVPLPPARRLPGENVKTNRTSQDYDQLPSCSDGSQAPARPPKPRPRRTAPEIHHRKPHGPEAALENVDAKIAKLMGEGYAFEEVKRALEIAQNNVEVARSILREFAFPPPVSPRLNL

IC50 (Cbl-b) [nM]	EC50 (Jurkat cells) [nM]	Structure (SMILES)
< 100	< 100	Cn1cnnc1-c1cc(F)ccc1-c1cc(C2CC2)nc(-n2cc(C(F)(F)F)c3nc(C4CC4)[nH]c3c2=O)c1 [Example 39, 2-cyclopropyl-5-[6-cyclopropyl-4-[4-fluoro-2-(4-methyl-1,2,4-triazol-3-yl)phenyl]pyridin-2-yl]-7-(trifluoromethyl)-3H-imidazo[4,5-c]pyridin-4-one]
< 100	< 100	Cn1cnnc1-c1cc(F)ccc1-c1cc(C2CC2)nc(-n2cc(C(F)(F)F)c3nc(C4CCC4)[nH]c3c2=O)c1 [Example 40, 2-Cyclobutyl-5-[6-cyclopropyl-4-[4-fluoro-2-(4-methyl-1,2,4-triazol-3-yl)phenyl]pyridin-2-yl]-7-(trifluoromethyl)-3H-imidazo[4,5-c]pyridin-4-one]
< 100	100 to 1000	CC(=O)N1CCC[C@H]1c1nc2c(C(F)(F)F)cn(-c3cc(-c4ccc(F)cc4-c4nncn4C)cc(C4CC4)n3)c(=O)c2[nH]1 [Example 45, 2-[(2S)-1-acetylpyrrolidin-2-yl]-5-[6-cyclopropyl-4-[4-fluoro-2-(4-methyl-1,2,4-triazol-3-yl)phenyl]pyridin-2-yl]-7-(trifluoromethyl)-3H-imidazo[4,5-c]pyridin-4-one]

Continued, compound first:

Structure (SMILES)	IC50 (Cbl-b) [nM]	EC50 (Jurkat cells) [nM]
Cn1cnnc1-c1cc(C#N)ccc1-c1cc(C2CC2)nc(-n2cc(C3CC3)c3cc(CNC4(C)CCC4)[nH]c3c2=O)c1 [Example 37, 4-(6-cyclopropyl-2-{4-cyclopropyl-2-[(1-methylcyclobutylamino)methyl]-7-oxo-1,6-dihydro-1,6-diaza-6-indenyl}-4-pyridyl)-3-(4-methyl-4H-1,2,4-triazol-3-yl)benzonitrile]	< 100	< 100
COCCOCc1cc2ncn(-c3cc(-c4ccc(F)cc4-c4nncn4C)cc(C4CC4)n3)c(=O)c2[nH]1 [Example 38, 6-{6-cyclopropyl-4-[4-fluoro-2-(4-methyl-4H-1,2,4-triazol-3-yl)phenyl]-2-pyridyl}-2-[(2-methoxyethoxy)methyl]-1,6-dihydro-1,4,6-triaza-7-indenone]	< 100	100 to 1000
COCCCc1nc2c(C(F)(F)F)cn(-c3cc(-c4ccc(F)cc4-c4nncn4C)cc(C4CC4)n3)c(=O)c2[nH]1 [Example 41, 5-{6-Cyclopropyl-4-[4-fluoro-2-(4-methyl-4H-1,2,4-triazol-3-yl)phenyl]-2-pyridyl}-2-(3-methoxypropyl)-7-(trifluoromethyl)-3,5-dihydro-1,3,5-triaza-4-indenone]	< 100	< 100
Cn1cnnc1-c1cc(F)ccc1-c1cc(C2CC2)nc(-n2cc(C(F)(F)F)c3nc(CC4CCC4)[nH]c3c2=O)c1 [Example 42, 2-(Cyclobutylmethyl)-5-{6-cyclopropyl-4-[4-fluoro-2-(4-methyl-4H-1,2,4-triazol-3-yl)phenyl]-2-pyridyl}-7-(trifluoromethyl)-3,5-dihydro-1,3,5-triaza-4-indenone]	< 100	< 100
Cn1cnnc1-c1cc(F)ccc1-c1cc(C2CC2)nc(-n2cc(C(F)(F)F)c3nc(CC4CCCCC4)[nH]c3c2=O)c1 [Example 43, 2-(Cyclohexylmethyl)-5-{6-cyclopropyl-4-[4-fluoro-2-(4-methyl-4H-1,2,4-triazol-3-yl)phenyl]-2-pyridyl}-7-(trifluoromethyl)-3,5-dihydro-1,3,5-triaza-4-indenone]	< 100	< 100
C[C@@H](c1nc2c(C(F)(F)F)cn(-c3cc(-c4ccc(F)cc4-c4nncn4C)cc(C4CC4)n3)c(=O)c2[nH]1)C1CC1 [Example 46, 2-[(1R)-1-cyclopropylethyl]-5-[6-cyclopropyl-4-[4-fluoro-2-(4-methyl-1,2,4-triazol-3-yl)phenyl]pyridin-2-yl]-7-(trifluoromethyl)-3H-imidazo[4,5-c]pyridin-4-one]	< 100	< 100

— US20250011318A1 (ARCUS BIOSCIENCES, INC., priority 2023, published 2025)
